Source: patent US10399932B2, “Inhibitors of indoleamine-2,3-dioxygenase for the treatment of cancer” (BRISTOL-MYERS SQUIBB COMPANY, priority 2015, dated 2019)

Biological target: human IDO1 (Homo sapiens, UniProt P14902)
Test: Assessment of human IDO-1 inhibitory activity in Hela cells (Interferon-gamma activated, Ehrlich reagent, absorbance at 490 nm)
Format: cell-based
Set-up: endogenous in cells; host or cells: HeLa cells stimulated with interferon-gamma
Conditions: 18 hours
Method: Exemplary compounds were tested for inhibition of IDO activity.
HeLa cells were seeded at 20,000 cells per 30 µL per well with RPMI/phenol red free media containing 10% FBS in a 384-well tissue culture plate (black with clear bottoms). 50 nL of compound was added to cells and incubated at 37° C. for one hour. 20 μL of the recombinant human Interferon-gamma (R&D System, Cat. #285-IF, at final concentration of 10 ng/ml) or recombinant murine Interferon-gamma (PEPROTECH® Inc., Cat. #315-05, final concentration of 5 ng/ml) was added to activate IDO signaling. The cells were incubated for 18 hours in 37° C. incubator with 5% CO2.
Compound treatment was stopped by adding 5 μl trichloroacetic acid to a final concentration of 3%. Subsequently, the cell plate was further incubated at 50° C. for 30 minute. An equal volume supernatant (20 μL) and 2% (w/v) Ehrlich reagent (4-dimethylaminobenzaldehyde) in glacial acetic acid were mixed in a new clear bottom 384-well plate. This plate was incubated at room temperature for 30 minutes. Absorbance at 490 nm was measured on Envision plate reader.
Compound IC50 values were calculated using counts from unstimulated (no INF-gamma treatment) wells as 100% inhibition. INF-gamma treatment without compound treatment as 0% inhibition.

human IDO1, sequence (P14902 whole entry): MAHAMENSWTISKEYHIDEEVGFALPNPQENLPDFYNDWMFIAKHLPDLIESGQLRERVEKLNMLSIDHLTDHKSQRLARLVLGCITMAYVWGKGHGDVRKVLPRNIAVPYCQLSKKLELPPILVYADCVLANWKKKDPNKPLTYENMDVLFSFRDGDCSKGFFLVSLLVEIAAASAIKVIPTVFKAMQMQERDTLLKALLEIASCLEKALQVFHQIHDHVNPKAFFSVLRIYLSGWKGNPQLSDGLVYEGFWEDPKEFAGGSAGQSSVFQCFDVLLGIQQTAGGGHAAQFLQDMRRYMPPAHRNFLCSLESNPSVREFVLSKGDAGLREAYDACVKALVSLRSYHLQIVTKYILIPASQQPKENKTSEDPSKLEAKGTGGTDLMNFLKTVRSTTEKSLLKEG

Question: How did the IC50 turn out when `CCOc1ncc(Nc2cc(C(COC)CC(=O)O)ccc2N(C)C2CCOCC2)cn1` (single isomer, unassigned) [Example 885, 3-(3-((2-ethoxypyrimidin-5-yl)amino)-4-(methyl (tetrahydro-2H-pyran-4-yl)amino)phenyl)-4-methoxybutanoic acid] was run?
Answer: > 50 nM

Question: For `COCC(CC(=O)O)c1ccc(N2CCOC[C@H]2C(C)C)c(NC(=O)Nc2ccc(C#N)cc2)c1` (single isomer, unassigned) [Example 915], which IC50 is on record?
Answer: > 50 nM

Question: With `CCN(c1c(F)cc(C(COC)CC(=O)O)cc1NC(=O)Nc1ccc(Cl)cc1F)C1CCOCC1` (single isomer, unassigned) [Example 917, 3-(3-(3-(4-Chloro-2-fluorophenyl)ureido)-4-(ethyl(tetrahydro-2H-pyran-4-yl)amino)-5-fluorophenyl)-4-methoxybutanoic acid] as the compound, how does the IC50 read?
Answer: > 50 nM

Question: Which IC50 does the source give for `COCC(CC(=O)O)c1cc(F)c(N(CC(C)C)CC(C)C)c(Nc2ccc(Cl)cc2)c1` (single isomer, unassigned) [Example 921, 3-(3-((4-Chlorophenyl)amino)-4-(diisobutylamino)-5-fluorophenyl)-4-methoxybutanoic acid] here?
Answer: < 5 nM

Question: `CCc1ccc(Nc2cc(C(COC)CC(=O)O)cc(F)c2N(CC(C)C)CC(C)C)cc1` (single isomer, unassigned) [Example 926, 3-(4-(diisobutylamino)-3-((4-ethylphenyl)amino)-5-fluorophenyl)-4-methoxybutanoic acid.] was tested. Which IC50 did it give?
Answer: < 50 nM

Question: How did the IC50 turn out when `COCC(CC(=O)O)c1ccc(NC2CCOCC2)c(Nc2ccc(C#N)cc2)c1` (single isomer, unassigned) [Example 928 E2, 3-(3-((4-Cyanophenyl)amino)-4-((tetrahydro-2H-pyran-4-yl)amino)phenyl)-4-methoxybutanoic acid] was run?
Answer: > 50 nM

Question: How did the IC50 turn out when `CCOc1ncc(Nc2cc(C(COC)CC(=O)O)ccc2N2CCOC[C@@H]2C(C)C)cn1` (single isomer, unassigned) [Example 935] was run?
Answer: > 50 nM

Question: How did the IC50 turn out when `COCC(CC(=O)O)c1ccc(N2CCOC[C@@H]2C(C)C)c(NC(=O)Nc2ccc(C#N)cc2)c1` (single isomer, unassigned) [Example 936] was run?
Answer: > 50 nM

Question: With `CCC(CC(=O)O)c1ccc(N(C)C2CCOCC2)c(Nc2ccc(Cl)cc2)c1` (single isomer, unassigned) [Example 937, 3-(3-((4-chlorophenyl)amino)-4-(methyl(tetrahydro-2H-pyran-4-yl)amino)phenyl) pentanoic acid] as the compound, how does the IC50 read?
Answer: < 5 nM

Question: With `CCOc1ncc(Nc2cc(C(COC)CC(=O)O)ccc2N2CCOC[C@H]2C(C)C)cn1` (single isomer, unassigned) [Example 938] as the compound, how does the IC50 read?
Answer: > 50 nM

Question: Which IC50 does the source give for `CCC(CC(=O)O)c1ccc(N(CC)C2CCN(Cc3ccccc3)CC2)c(Nc2ccc(C#N)cc2)c1` (single isomer, unassigned) [Example 943, 3-(4-((1-benzylpiperidin-4-yl)(ethyl)amino)-3-((4-cyanophenyl)amino)phenyl) pentanoic acid] here?
Answer: < 5 nM

Question: With `CCOc1ncc(Nc2cc(C(CC)CC(=O)O)ccc2N(CC)C2CCOC2)cn1` (single isomer, unassigned) [Example 945 D2, 3-(3-((2-Ethoxypyrimidin-5-yl)amino)-4-(ethyl (tetrahydrofuran-3-yl)amino)phenyl)pentanoic acid] as the compound, how does the IC50 read?
Answer: < 50 nM

Question: Which IC50 does the source give for `CCC(CC(=O)O)c1ccc(N2CC(O)(c3ccc(F)cc3)C2)c(Nc2ccc(C#N)cc2)c1` (single isomer, unassigned) [Example 1255, 3-(3-((4-cyanophenyl)amino)-4-(3-(4-fluorophenyl)-3-hydroxyazetidin-1-yl)phenyl)pentanoic acid] here?
Answer: < 50 nM

Question: Which IC50 does the source give for `CCC(CC(=O)O)c1ccc(N(CCOC)C2CCOCC2)c(Nc2ccc(C#N)cc2)c1` (single isomer, unassigned) [Example 1261, 3-(3-((4-cyanophenyl)amino)-4-((2-methoxyethyl)(tetrahydro-2H-pyran-4-yl)amino)phenyl)pentanoic acid] here?
Answer: < 5 nM

Question: With `CCC(CC(=O)O)c1ccc(N(CCOC)C2CCOCC2)c(Nc2cnc(OC)nc2)c1` (single isomer, unassigned) [Example 1262, 3-(4-((2-methoxyethyl)(tetrahydro-2H-pyran-4-yl)amino)-3-((2-methoxypyrimidin-5-yl)amino)phenyl)pentanoic acid] as the compound, how does the IC50 read?
Answer: < 50 nM

Question: With `CCOc1ncc(Nc2cc(C(CC)CC(=O)O)ccc2N(CCOC)C2CCOCC2)cn1` (single isomer, unassigned) [Example 1263, 3-(3-((2-ethoxypyrimidin-5-yl)amino)-4-((2-methoxyethyl)(tetrahydro-2H-pyran-4-yl)amino)phenyl)pentanoic acid] as the compound, how does the IC50 read?
Answer: < 50 nM

Question: `CCC(CC(=O)O)c1ccc(N(CCOC)C2CCOCC2)c(NC(=O)Nc2ccc(Cl)cc2F)c1` (single isomer, unassigned) [Example 1266, 3-(3-(3-(4-chloro-2-fluorophenyl)ureido)-4-((2-methoxyethyl) (tetrahydro-2H-pyran-4-yl)amino)phenyl)pentanoic acid] was tested. Which IC50 did it give?
Answer: < 50 nM

Question: For `CCC1COCCN1c1ccc([C@@H](COC)CC(=O)O)cc1Nc1ccc(C#N)c(F)c1` (single isomer, unassigned) [Example 1296], which IC50 is on record?
Answer: > 50 nM

Question: How did the IC50 turn out when `CCC1COCCN1c1ccc([C@@H](COC)CC(=O)O)cc1Nc1ccc(C#N)cn1` (single isomer, unassigned) [Example 1297] was run?
Answer: > 50 nM

Question: `CCC1COCCN1c1ccc([C@@H](COC)CC(=O)O)cc1Nc1cnc(OC)nc1` (single isomer, unassigned) [Example 1298] was tested. Which IC50 did it give?
Answer: > 50 nM

Question: Which IC50 does the source give for `CCOc1ncc(Nc2cc([C@@H](COC)CC(=O)O)ccc2N2CCOCC2CC)cn1` (single isomer, unassigned) [Example 1299] here?
Answer: > 50 nM

Question: `CCC1COCCN1c1ccc([C@H](COC)CC(=O)O)cc1Nc1ccc(C#N)cn1` (single isomer, unassigned) [Example 1305] was tested. Which IC50 did it give?
Answer: > 50 nM

Question: Which IC50 does the source give for `CCC1COCCN1c1ccc([C@H](COC)CC(=O)O)cc1Nc1cnc(OC)nc1` (single isomer, unassigned) [Example 1306] here?
Answer: > 50 nM

Question: Which IC50 does the source give for `CCOc1ncc(Nc2cc([C@H](COC)CC(=O)O)ccc2N2CCOCC2CC)cn1` (single isomer, unassigned) [Example 1307] here?
Answer: > 50 nM

Question: With `CCC1COCCN1c1ccc([C@H](COC)CC(=O)O)cc1Nc1ccc(Cl)cc1` (single isomer, unassigned) [Example 1308] as the compound, how does the IC50 read?
Answer: < 50 nM

Question: With `CCC1COCCN1c1ccc([C@H](COC)CC(=O)O)cc1Nc1ccc(F)cn1` (single isomer, unassigned) [Example 1310] as the compound, how does the IC50 read?
Answer: > 50 nM

Question: With `COCC(CC(=O)O)c1ccc(N2CCOC(C)C2)c(Nc2ccc(C#N)cc2)c1` (single isomer, unassigned) [Example 1313] as the compound, how does the IC50 read?
Answer: > 50 nM

Question: How did the IC50 turn out when `COCC(CC(=O)O)c1ccc(N2CCOC(C)(C)C2)c(Nc2ccc(C#N)cc2)c1` (single isomer, unassigned) [Example 1317] was run?
Answer: > 50 nM

Question: Which IC50 does the source give for `COCC(CC(=O)O)c1ccc(N2CCC(c3ccccc3)CC2)c(Nc2ccc(C#N)cc2)c1` (single isomer, unassigned) [Example 1350 E2, 3-(3-((4-Cyanophenyl)amino)-4-(4-phenylpiperidin-1-yl)phenyl)-4-methoxybutanoic acid] here?
Answer: < 5 nM

Question: `CCN(c1cc(F)c([C@@H](COC)CC(=O)O)cc1Nc1ccc(Cl)cc1)C1CCOCC1` (stereo in doubt) [Example 851, 3-(5-((4-chlorophenyl)amino)-4-(ethyl(tetrahydro-2H-pyran-4-yl)amino)-2-fluorophenyl)-4-methoxybutanoic acid] was tested. Which IC50 did it give?
Answer: < 5 nM

Question: For `CCOc1ncc(Nc2cc(C(CC(=O)O)C3CC3)ccc2N2C[C@@H](C)O[C@@H](C)C2)cn1` (stereo partly drawn) [Example 250, 3-cyclopropyl-3-(4-((2R,6S)-2,6-dimethylmorpholino)-3-((2-ethoxypyrimidin-5-yl)amino)phenyl) propanoic acid], which IC50 is on record?
Answer: > 50 nM

Question: How did the IC50 turn out when `COCC(CC(=O)OC)c1ccc(N(CC(F)F)C2CCOCC2)c(Nc2ccc(Cl)cc2)c1` (stereo not drawn) [Example 319, methyl 3-(3-((4-chloro-phenyl)amino)-4-((2,2-difluoroethyl) (tetrahydro-2H-pyran-4-yl)amino)phenyl)-4-methoxy-butanoate] was run?
Answer: < 5 nM

Question: `COCC(CC(=O)OC)c1ccc(N(CC(F)F)C2CCOCC2)c(Nc2ccc(Cl)cc2)c1` (stereo not drawn) [Example 320, methyl 3-(3-((4-chloro-phenyl)amino)-4-((2,2-difluoroethyl) (tetrahydro-2H-pyran-4-yl)amino)phenyl)-4-methoxy-butanoate] was tested. Which IC50 did it give?
Answer: > 50 nM

Question: `CCN(c1ccc([C@@H](COC)CC(=O)O)cc1Nc1cccc(OC(F)(F)C(F)F)c1)C1CCOCC1` [Example 361, (S)-3-(4-(ethyl(tetrahydro-2H-pyran-4-yl)amino)-3-((3-(1,1,2,2-tetrafluoroethoxy)phenyl)amino)phenyl)-4-methoxybutanoic acid] was tested. Which IC50 did it give?
Answer: < 5 nM

Question: For `CCN(c1ccc([C@@H](COC)CC(=O)O)cc1Nc1ccc(C#N)c(OC)c1)C1CCOCC1` [Example 380], which IC50 is on record?
Answer: < 50 nM

Question: With `CCN(c1ccc([C@H](COC)CC(=O)O)cc1Nc1cccc(OC(F)(F)C(F)F)c1)C1CCOCC1` [Example 398, (R)-3-(4-(ethyl(tetrahydro-2H-pyran-4-yl)amino)-3-((3-(1,1,2,2-tetrafluoroethoxy)phenyl)amino)phenyl)-4-methoxybutanoic acid] as the compound, how does the IC50 read?
Answer: < 5 nM
